From ChEMBL document CHEMBL1201862, “PubChem BioAssay data set” (2004) come the findings set out here.

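Following 48 hours of exposure in 96-well plates, responses at five concentrations were used to interpolate endpoints linearly. The concentration for 50% growth inhibition is given as GI50.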 Active and inactive are the calls of the source. Rule as the data show it: active = GI50 up to about 1.1 µM and inactive = higher.

Among the test systems are DMS-273; M19-MEL; LXFL 529; DMS-114; HOP-18; KM-20L2; SNB-78; RXF 631; XF498.
Assay in all cases: NCI anticancer screen, dose series, 48 h

For `COc1cc2c3c(c1OC)-c1ccccc1C(C(OC(C)=O)c1ccccc1)C3N(C)CC2` (stereo unspecified), the GI50 was 19.3 µM (inactive) in the experiment with DMS-273; 28.8 µM (inactive) in the experiment on M19-MEL; 19.7 µM (inactive) with LXFL 529; 28.4 µM (inactive) with DMS-114; > 100 µM (inactive) in the experiment on HOP-18; 27.1 µM (inactive) in the experiment with KM-20L2. The GI50 in the experiment on SNB-78 was 32.7 µM (inactive).

Take `COc1ccc(/C=C\c2cc(OC)c(OC)c(OC)c2)cc1OC(=O)NCCN(C)C`: the GI50 in the experiment on DMS-273 was < 0.0001 µM (active); with M19-MEL it was < 0.0001 µM (active); in the experiment on LXFL 529, < 0.0001 µM (active); in the experiment on DMS-114, < 0.0001 µM (active); in the experiment with HOP-18, 16.8 µM (inactive); in the experiment on KM-20L2 it was 0.136 µM (active). Moreover, the GI50 with RXF 631 is 0.000196 µM (active); in the experiment with SNB-78, < 0.0001 µM (active); in the experiment with XF498, < 0.0001 µM (active).

Turning to `Cc1cc2occ(C)c(=O)c2c2c1OC(C)(C)S2`, the GI50 in the experiment with DMS-273, in the experiment on M19-MEL, with LXFL 529, in the experiment with DMS-114, with HOP-18 and in the experiment on KM-20L2 was > 100 µM (inactive) in each case. In the experiment on XF498, the GI50 was > 100 µM (inactive).

`CCOC(=O)CC(NC(=O)c1nc[nH]c1[N+](=O)[O-])C(=O)OCC` (stereo unspecified): the GI50 is 40.6 µM (inactive) in the experiment on DMS-273, 82 µM (inactive) in the experiment on M19-MEL, 41.5 µM (inactive) with LXFL 529 and 43.3 µM (inactive) in the experiment on DMS-114.

Regarding `O=C(NC12CC3CC(CC(C3)C1)C2)C(=O)c1c[nH]c2ccccc12`, the GI50 in the experiment with DMS-273 was 14.8 µM (inactive); with M19-MEL, 18.7 µM (inactive); with LXFL 529, 13.4 µM (inactive); in the experiment with DMS-114 it was 18 µM (inactive); in the experiment with KM-20L2, 5.94 µM (inactive); with SNB-78, 18 µM (inactive). In addition, the GI50 with XF498 is 13.1 µM (inactive).

With `CC1=C(SC#N)S(=O)(=O)N(c2ccccc2)C(C)=C1SC#N`, the GI50 in the experiment on DMS-273 was 50.5 µM (inactive); in the experiment with M19-MEL, 29.5 µM (inactive); in the experiment with LXFL 529, 22.4 µM (inactive); in the experiment with DMS-114, 5.92 µM (inactive); in the experiment with SNB-78 it was 78.3 µM (inactive); in the experiment with XF498, 16.8 µM (inactive).

With `CCOC(=O)C1=C(Nc2ccccc2)SC/C1=N\NC(=O)Cc1ccccc1`, the GI50 in the experiment with DMS-273, in the experiment with M19-MEL, in the experiment on LXFL 529, in the experiment on HOP-18, in the experiment with KM-20L2 and in the experiment on RXF 631 was > 100 µM (inactive) throughout. Further, the GI50 with SNB-78 and in the experiment on XF498 was > 100 µM (inactive) each time.

For the compound `CCOC(=O)c1nc(-c2ccccc2)oc1OCC`, the GI50 was 90.2 µM (inactive) with DMS-273; > 100 µM (inactive) in the experiment on M19-MEL; > 100 µM (inactive) with LXFL 529; > 100 µM (inactive) in the experiment with DMS-114; > 100 µM (inactive) with HOP-18; > 100 µM (inactive) with KM-20L2. The results for the GI50 in the experiment on SNB-78 and in the experiment with XF498 were > 100 µM (inactive) and 21.2 µM (inactive), respectively.

For `CCCCCCCCCCCC(=O)OCC1OC(OC)C(NC(=O)N(CCCl)N=O)C(O)C1O` (stereo unspecified), the GI50 is 11.2 µM (inactive) in the experiment on DMS-273; 38.8 µM (inactive) in the experiment with M19-MEL; 12.6 µM (inactive) in the experiment on LXFL 529; 16.6 µM (inactive) in the experiment on DMS-114; 34.3 µM (inactive) in the experiment on HOP-18; 17 µM (inactive) in the experiment with KM-20L2. Also, the GI50 in the experiment with XF498 is 12.4 µM (inactive).

Consider `COc1cc2c(cc1OC)C1(c3ccccc3)ON=C(c3ccccc3)N1CS2` (stereo unspecified), for which the GI50 in the experiment with DMS-273, in the experiment on M19-MEL, in the experiment on LXFL 529, with DMS-114, in the experiment with HOP-18 and in the experiment with KM-20L2 was > 100 µM (inactive) each time. In addition, the GI50 in the experiment on RXF 631, with SNB-78 and in the experiment on XF498 was > 100 µM (inactive) each time.

`CCOC(=O)NC(=O)c1cn(CC(=O)NCC(=O)NCC(=O)NCCCN2CCN(CCCNC(=O)CNC(=O)CNC(=O)Cn3cc(C(=O)NC(=O)OCC)c(=O)[nH]c3=O)CC2)c(=O)[nH]c1=O`: the GI50 in the experiment on DMS-273, in the experiment with M19-MEL, in the experiment on LXFL 529, in the experiment with DMS-114, with HOP-18 and with KM-20L2 was > 100 µM (inactive) throughout. Besides, the GI50 in the experiment on RXF 631, in the experiment with SNB-78 and in the experiment on XF498 was > 100 µM (inactive) in each case.

Take `O=C(/C=C\c1cccc2ccccc12)c1ccc(Br)cc1`: the GI50 was 16.7 µM (inactive) with DMS-273; 19 µM (inactive) in the experiment with M19-MEL; 18.1 µM (inactive) with LXFL 529; 15 µM (inactive) in the experiment with DMS-114; 19.2 µM (inactive) in the experiment with HOP-18; 16.3 µM (inactive) in the experiment on KM-20L2. The GI50 in the experiment with SNB-78 is 20.6 µM (inactive).

Take `Cc1cc(O)nc(NNC(C#N)c2c(O)ccc3ccccc23)n1` (stereo unspecified): the GI50 in the experiment with DMS-273 was 3.87 µM (inactive); in the experiment with M19-MEL, 4.68 µM (inactive); in the experiment with LXFL 529, 8.79 µM (inactive); with DMS-114, 2.87 µM (inactive); in the experiment on HOP-18, 4.49 µM (inactive); in the experiment with KM-20L2, 24.8 µM (inactive). Also, the GI50 in the experiment on SNB-78 is 19.3 µM (inactive).

Take `Cc1cn(C2CC(O)C(CO)O2)c(=O)[nH]c1=O` (stereo unspecified): the GI50 in the experiment on DMS-273 is 3780 µM (inactive); with M19-MEL, 1070 µM (inactive); in the experiment with DMS-114, 728 µM (inactive); in the experiment with HOP-18, 4610 µM (inactive); with KM-20L2, 3360 µM (inactive); in the experiment with SNB-78, 3180 µM (inactive). The GI50 in the experiment on XF498 is 263 µM (inactive).

Consider `COc1cc(NCc2ccc3nc(N)nc(N)c3c2C)cc(OC)c1OC`, for which the GI50 with DMS-273 is 0.025 µM (active); in the experiment on M19-MEL, 0.326 µM (active); with DMS-114, 0.025 µM (active); with HOP-18, 7.29 µM (inactive); in the experiment with KM-20L2, 0.0347 µM (active); in the experiment on SNB-78, 5.42 µM (inactive). In the experiment with XF498, the GI50 was 2.57 µM (inactive).

For `CCCCCCCCCC[S+]([O-])CC(CO)NC(=O)/C=C/c1c(C)nc(O)nc1O` (stereo unspecified), the GI50 with DMS-273 is 0.37 µM (active); in the experiment on M19-MEL, 0.475 µM (active); with DMS-114 it was 0.152 µM (active); in the experiment with HOP-18 it was 1.49 µM (inactive); in the experiment with KM-20L2, 0.695 µM (active); in the experiment on SNB-78, 0.718 µM (active). Moreover, in the experiment on XF498, the GI50 was 0.0376 µM (active).

As to `COc1cc2c(c(OC)c1OC)-c1ccc(SC)c(=O)cc1[C@@H](NCc1cccc(C#N)c1)CC2`, the GI50 in the experiment with DMS-273 is 0.00647 µM (active); in the experiment with M19-MEL it was 0.0193 µM (active); with LXFL 529, 0.0147 µM (active); in the experiment with DMS-114 it was 0.0153 µM (active); in the experiment with KM-20L2, 0.0131 µM (active); in the experiment with RXF 631, 0.0075 µM (active). The GI50 in the experiment on SNB-78 is 0.0197 µM (active); in the experiment with XF498, 0.0257 µM (active).

Take `N/N=C(/C(=O)Nc1cccc(Cl)c1)C(C(=O)c1ccc(O)cc1O)C1OC(=O)c2ccccc21` (stereo unspecified): the GI50 is 65.9 µM (inactive) in the experiment on DMS-273; > 100 µM (inactive) in the experiment with M19-MEL; > 100 µM (inactive) in the experiment with LXFL 529; > 100 µM (inactive) in the experiment with DMS-114; > 100 µM (inactive) in the experiment on KM-20L2; > 100 µM (inactive) with SNB-78.

`O=C1CCN2CCC(=O)c3c2c(cc2ccccc32)N1`: the GI50 in the experiment with DMS-273, in the experiment on M19-MEL, with LXFL 529, in the experiment with DMS-114, in the experiment with KM-20L2 and with SNB-78 was > 100 µM (inactive) each time. Besides, in the experiment on XF498, the GI50 was 26.8 µM (inactive).

On to `O=C1CCC2(O)c3ccccc3C2Cc2ccccc21` (stereo unspecified), for which the GI50 with DMS-273, in the experiment on M19-MEL, in the experiment with DMS-114, in the experiment with HOP-18, with KM-20L2 and in the experiment with SNB-78 was > 100 µM (inactive) throughout. For the same compound, the GI50 in the experiment on XF498 was > 100 µM (inactive).

In the case of `COc1ccc(C(=C[N+](=O)[O-])c2ccc(OC)cc2)cc1`, the GI50 with DMS-273 is 2.74 µM (inactive); in the experiment on LXFL 529, 16.2 µM (inactive); in the experiment with DMS-114, 4.13 µM (inactive); with HOP-18, > 100 µM (inactive); in the experiment on KM-20L2, 10.6 µM (inactive); in the experiment with RXF 631, 14 µM (inactive). Also, the GI50 with SNB-78 is 14.7 µM (inactive).

On to `O=C(Nc1ccc(Sc2ccc(/N=N/c3c(O)c(S(=O)(=O)O)cc4cc(S(=O)(=O)O)ccc34)cc2)cc1)c1ccc(/N=N/c2c(O)ccc3c(S(=O)(=O)O)cc(S(=O)(=O)O)cc23)cc1`, for which the GI50 in the experiment with DMS-273 is 25.9 µM (inactive); with M19-MEL, 16.6 µM (inactive); in the experiment with LXFL 529, 25.2 µM (inactive); in the experiment on HOP-18, 33 µM (inactive); in the experiment on KM-20L2, 58.7 µM (inactive); in the experiment on RXF 631 it was 41.3 µM (inactive). Also, the GI50 in the experiment with SNB-78 was 36.4 µM (inactive); with XF498, 28.2 µM (inactive).

On to `CCN(CC)CCC(=O)N1C/C(=C/c2ccccc2)C(=O)/C(=C\c2ccccc2)C1`, for which the GI50 with DMS-273 is 1.42 µM (inactive); in the experiment on M19-MEL it was 1.39 µM (inactive); in the experiment with LXFL 529, 1.56 µM (inactive); in the experiment on DMS-114 it was 1.79 µM (inactive); with HOP-18, 2.8 µM (inactive); with KM-20L2 it was 1.71 µM (inactive). The GI50 in the experiment with XF498 was 2.63 µM (inactive).

In the case of `COC(=O)C1CCC(C)CC1=O` (stereo unspecified), the GI50 in the experiment on DMS-273, in the experiment with M19-MEL, in the experiment on LXFL 529, in the experiment on DMS-114, with RXF 631 and in the experiment with SNB-78 was > 100 µM (inactive) throughout. In the experiment on XF498, the GI50 was > 100 µM (inactive).

Turning to `CCOC(=O)[C@H]1Nc2ccc([N+](=O)[O-])cc2C2c3ccccc3CC21` (stereo partly specified), the GI50 in the experiment with DMS-273 was 12.6 µM (inactive); with M19-MEL it was 20.8 µM (inactive); in the experiment on LXFL 529, 5.79 µM (inactive); in the experiment with DMS-114, 15.9 µM (inactive); in the experiment on KM-20L2, 20.6 µM (inactive); in the experiment on SNB-78, 42.1 µM (inactive). Also, in the experiment on XF498, the GI50 was 30 µM (inactive).

With `CCCCOP1(=O)CC(C)=C(Cl)C(C)(OC)C1` (stereo unspecified), the GI50 with DMS-273 is > 100 µM (inactive); in the experiment with M19-MEL, > 100 µM (inactive); in the experiment on LXFL 529 it was 45.2 µM (inactive); with KM-20L2, > 100 µM (inactive); in the experiment on SNB-78, > 100 µM (inactive); in the experiment on XF498, > 100 µM (inactive).
